Results reported in patent US7795226B2, “Control of radiation injury” (Biotempt B.V., priority 2006, dated 2010).
Several values for one entry are separate records, joined by “and”; a condition that tells them apart may be missing. Identical values can stand only once.

How the values were obtained:
Format in all cases: in vivo
[1] = tested on: high dose LPS (E. coli 026:B6)-induced septic shock in BALB/c mice; assay: high dose LPS-induced septic shock, peptide administered twice; settings: peptide twice (t = 2 and 24 hours) 5 mg/kg
Outline: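 Female BALB/c mice (8–12 weeks) given high-dose LPS (E. coli 026:B6) i.p., predetermined to cause 80–100% mortality in 24–72 h. Peptides in PBS at 5 mg/kg i.p. at 2 and 24 h after LPS; sickness scored 0–5 or dead.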

[2] = tested on: LPS (E. coli 026:B6)-induced septic shock in BALB/c mice; assay: LPS-induced septic shock, single dose of peptide
Outline: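 Female BALB/c mice (8–12 weeks, SPF) received 150–300 μg LPS (E. coli 026:B6) i.p., doses set to give 80–100% mortality in 24–72 h. Peptides in PBS were given i.p. once at 5 mg/kg, 2 h or 24 h after LPS; PBS i.p. controls. Sickness scored 0–5 or dead.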

[3] = tested on: renal ischemia reperfusion in mice; assay: mouse renal ischemia reperfusion test; parameters: BUN after 25 minutes renal ischemia, mean / Urea levels in dose-response experiment: unit not given here; settings: 5 mg/kg i.v.
Outline: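 In anesthetized mice kept at 37° C, the left renal pedicle was clamped for 25 min and the right kidney removed after reperfusion. Peptide in saline was given i.v. (5 mg/kg; other series 0.3–30 mg/kg) 5 min before clamping and 5 min before release, with PBS as control. Mortality and BUN were measured at 2, 24 and 72 h; P values were calculated by Mann-Whitney U-test.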

[4] = LPS dose 7**, single dose 5 mg/kg
[5] = LPS dose 7*, single dose 5 mg/kg
[6] = LPS dose 8, single dose 5 mg/kg
[7] = LPS dose 8, single dose 5 mg/kg, 5 mg/kg
[8] = LPS dose 9, single dose 5 mg/kg
[9] = LPS dose 9, single dose 5 mg/kg, 5 mg/kg
[10] = LPS dose 10, single dose 5 mg/kg
[11] = LPS dose 10, single dose 5 mg/kg, 5 mg/kg

VLPALP (hexamer peptide)
mice scored D (dead), effect at t = 48 hours ([1]; LPS dose 10.5): 5 | mice with sickness score 5, effect at t = 24 hours ([1]; LPS dose 10.5): 5 | mice scored D (dead), effect at t = 48 hours ([1]; LPS dose 11): 6 | mice with sickness score 4, effect at t = 24 hours ([1]; LPS dose 11): 2 | mice with sickness score 4, effect at t = 48 hours ([1]; LPS dose 11): 1 | mice with sickness score 5, effect at t = 24 hours ([1]; LPS dose 11): 4 | protective effect against LPS-induced sepsis (in words) ([2]; 5 mg/kg i.p.): marked protective effect | mice with sickness score 1, effect at t = 24 hours [2, 4]: 5 | mice with sickness score 1, effect at t = 48 hours [2, 4]: 5 | mice with sickness score 2, effect at t = 24 hours [2, 4]: 1 | mice with sickness score 2, effect at t = 48 hours [2, 4]: 1 | mice with sickness score 1, effect at t = 24 hours [2, 5]: 4 | mice with sickness score 1, effect at t = 48 hours [2, 5]: 5 | mice with sickness score 2, effect at t = 24 hours [2, 5]: 2 | mice with sickness score 2, effect at t = 48 hours [2, 5]: 1 | mice with sickness score 0, effect at t = 48 hours [2, 6]: 2 | mice with sickness score 3, effect at t = 48 hours [2, 6]: 1 | mice with sickness score 1, effect at t = 24 hours [2, 7]: 3 and 2 | mice with sickness score 1, effect at t = 48 hours [2, 7]: 3 and 5 | mice with sickness score 2, effect at t = 48 hours [2, 7]: 2 and 1 | mice scored D (dead), effect at t = 48 hours [2, 8]: 1 | mice with sickness score 1, effect at t = 24 hours [2, 8]: 2 | mice with sickness score 3, effect at t = 48 hours [2, 8]: 1 | mice with sickness score 4, effect at t = 24 hours [2, 8]: 1 | mice with sickness score 5, effect at t = 48 hours [2, 8]: 2 | mice with sickness score 2, effect at t = 24 hours [2, 9]: 3 and 4 | mice with sickness score 2, effect at t = 48 hours [2, 9]: 2 and 1 | mice with sickness score 3, effect at t = 24 hours [2, 9]: 1 and 2 | mice scored D (dead), effect at t = 48 hours [2, 10]: 2 | mice with sickness score 2, effect at t = 48 hours [2, 10]: 2 | mice with sickness score 3, effect at t = 48 hours [2, 10]: 2 | mice with sickness score 5, effect at t = 48 hours [2, 10]: 1 | mice with sickness score 1, effect at t = 48 hours [2, 11]: 3 and 2 | mice with sickness score 2, effect at t = 24 hours [2, 11]: 3 and 4 | mice with sickness score 4, effect at t = 24 hours [2, 11]: 3 and 2 | BUN after 25 minutes renal ischemia, mean ([3]; 2 hours after reperfusion): 16.24 | BUN after 25 minutes renal ischemia, mean ([3]; 24 hours after reperfusion): 62.4 | BUN after 25 minutes renal ischemia, mean ([3]; 72 hours after reperfusion): 47.05 | BUN after 25 minutes renal ischemia, mean ([3]; t = 0 hr (before clamping)): 8.423

VLPALPQ (septamer peptide)
mice scored D (dead), effect at t = 48 hours ([1]; LPS dose 10.5): 2 | mice with sickness score 2, effect at t = 24 hours ([1]; LPS dose 10.5): 1 | mice with sickness score 2, effect at t = 48 hours ([1]; LPS dose 10.5): 3 | mice with sickness score 3, effect at t = 24 hours ([1]; LPS dose 10.5): 2 | mice with sickness score 5, effect at t = 24 hours ([1]; LPS dose 10.5): 2 | mice scored D (dead), effect at t = 48 hours ([1]; LPS dose 11): 2 | mice with sickness score 4, effect at t = 48 hours ([1]; LPS dose 11): 3 | mice with sickness score 5, effect at t = 24 hours ([1]; LPS dose 11): 6 | mice with sickness score 5, effect at t = 48 hours ([1]; LPS dose 11): 1 | mice with sickness score 2, effect at t = 48 hours ([1]; LPS dose 11, 5 mg/kg): 4 and 2 | mice scored D (dead), effect at t = 24 hours [2, 4]: 1 | mice scored D (dead), effect at t = 48 hours [2, 4]: 6 | mice with sickness score 5, effect at t = 24 hours [2, 4]: 5 | mice scored D (dead), effect at t = 48 hours [2, 5]: 2 | mice with sickness score 3, effect at t = 24 hours [2, 5]: 3 | mice with sickness score 4, effect at t = 24 hours [2, 5]: 3 | mice with sickness score 4, effect at t = 48 hours [2, 5]: 2 | mice with sickness score 5, effect at t = 48 hours [2, 5]: 2 | mice scored D (dead), effect at t = 24 hours [2, 6]: 2 | mice scored D (dead), effect at t = 48 hours [2, 6]: 6 | mice with sickness score 2, effect at t = 24 hours [2, 6]: 1 | mice with sickness score 3, effect at t = 24 hours [2, 6]: 3 | mice with sickness score 3, effect at t = 48 hours [2, 6]: 1 | mice with sickness score 4, effect at t = 48 hours [2, 6]: 3 | mice with sickness score 5, effect at t = 24 hours [2, 6]: 3 | mice with sickness score 5, effect at t = 48 hours [2, 6]: 2 | mice with sickness score 4, effect at t = 24 hours [2, 7]: 2 and 1 | mice scored D (dead), effect at t = 24 hours [2, 10]: 3 | mice scored D (dead), effect at t = 48 hours [2, 10]: 5 | mice with sickness score 3, effect at t = 24 hours [2, 10]: 1 | mice with sickness score 4, effect at t = 24 hours [2, 10]: 2 | mice with sickness score 5, effect at t = 48 hours [2, 10]: 1 | mice with sickness score 5, effect at t = 24 hours [2, 11]: 4 and 2 | BUN after 25 minutes renal ischemia, mean ([3]; 2 hours after reperfusion): 13.58 | BUN after 25 minutes renal ischemia, mean ([3]; 24 hours after reperfusion): 37.79 | BUN after 25 minutes renal ischemia, mean ([3]; 72 hours after reperfusion): 37.6375 | BUN concentration versus PBS (in words) ([3]; at 72 hours post-reperfusion): did much better in terms of reduced BUN concentration | BUN after 25 minutes renal ischemia, mean ([3]; t = 0 hr (before clamping)): 8.257
